These results are taken from PubChem BioAssay (NCI).

Molecules are shown by their SMILES. Several values for one entry are separate records, joined by “and”; a condition that tells them apart may be missing. Identical values can stand only once.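 The compound was tested at five concentrations on cells cultured in 96-well plates, with a 48-hour exposure period. Here, GI50 denotes the concentration required for 50% inhibition of growth. TGI marks complete inhibition of growth.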

Holding throughout (test): growth of human tumour cells (NCI), 48 h
For experiment [1], the system named is SF-539 CNS.
Experiment [2] concerns SN12C renal.
Experiment [3] relates to SNB-75 CNS.
For experiment [4], the system named is BT-549 breast.
The test system of experiment [5] is SK-MEL-2 melanoma.
In experiment [6] the test system is SR leukemia.
Experiment [7] has as its system OVCAR-8 ovarian.
The subject of experiment [8] is TK-10 renal.
The subject of experiment [9] is SW-620 colon.
Experiment [10] has as its system HS 578T breast.
Experiment [11] relates to LOX IMVI melanoma.
The test system of experiment [12] is HCC-2998 colon.
Experiment [13] deals with U251 CNS.
Experiment [14] has as its system SF-295 CNS.
Experiment [15] deals with COLO 205 colon.
Experiment [16] has as its system A549 NSCLC.
In experiment [17] the test system is CCRF-CEM leukemia.

With `CCC1C(NC(=O)OC)C(=O)N1[C@@H](C)c1ccccc1` (some centres undefined), the TGI in [1], in experiment [2], in experiment [3], in experiment [4], in [5] and in experiment [6] was above 100 µM throughout. The TGI in experiment [7], in [8], in experiment [9], in experiment [10], in experiment [11] and in [12] was above 100 µM in each case. Moreover, the TGI in [13], in experiment [14] and in experiment [15] was above 100 µM throughout.
With `COc1ccccc1NC1Oc2cc3c(cc2C(c2cc(OC)c(OC)c(OC)c2)C1C)OCO3` (centres undefined), the TGI in experiment [16] is above 100 µM; in experiment [1], 5.24 µM; in experiment [2], above 65.3 µM; in experiment [3] it was 16.7 µM; in [4], above 70.8 µM; in [5], above 100 µM. Moreover, the TGI in experiment [7] was above 64.2 µM; in experiment [8], above 100 µM; in experiment [9] it was above 100 µM; in experiment [10] it was above 25.2 µM; in experiment [17], above 50.3 µM; in [11], above 100 µM. Further, the TGI in [12] is 7.93 µM; in experiment [13], 51.2 µM; in experiment [14], 2.99 µM; in experiment [15], 5.79 µM.
Consider `N=S(c1ccccc1[N+](=O)[O-])c1ccccc1[N+](=O)[O-]`, for which the TGI was 9.72 µM and 15.6 µM in [16]; 6.9 µM and 9.89 µM in experiment [1]; 2.89 µM and 3.19 µM in [2]; 20.5 µM and 15.6 µM in experiment [3]; 3.13 µM in experiment [4]; 7.97 µM and 9.86 µM in experiment [5]. The TGI is 5.4 µM and 13.1 µM in experiment [7]; 7.42 µM and 6.53 µM in experiment [8]; 2.95 µM and 10 µM in experiment [9]; above 100 µM in experiment [10]; 7.79 µM and 2.7 µM in experiment [17]; 1.68 µM and 2.58 µM in [11]. The TGI was 7.11 µM and 9.66 µM in [12]; 27.7 µM and 29.5 µM in experiment [13]; 6.16 µM and 15.4 µM in experiment [14]; 2.77 µM and 4.12 µM in [15]. Also, the GI50 in experiment [9] is 1.14 µM and 2.47 µM; in experiment [13], 14.5 µM and 16 µM; in experiment [14], 2.45 µM and 5.99 µM.
As to `CC(=O)C1C(=O)C(=O)N(c2ccc([N+](=O)[O-])cc2[N+](=O)[O-])C1=O` (centres undefined), the TGI in experiment [16], in experiment [1], in experiment [2], in experiment [3], in experiment [4] and in experiment [5] was above 100 µM in each case. Also, the TGI in experiment [7], in [8], in [9], in experiment [10], in experiment [17] and in [11] was above 100 µM throughout. In addition, the TGI in experiment [12], in experiment [13], in [14] and in experiment [15] was above 100 µM each time.
Regarding `NC1CCN(c2nc3ccccc3c3c2CCCC3)CC1`, the TGI in [16] was found to be 23.5 µM; in [1] it was 11.8 µM; in [2] it was 21.5 µM; in [3], 22.1 µM; in experiment [4], 25.9 µM; in experiment [5], 10.5 µM. Further, the TGI was 32.8 µM in [7]; 23.2 µM in [8]; 12.7 µM in experiment [9]; above 100 µM in experiment [10]; 15.2 µM in [17]; 14.2 µM in [11]. The TGI was determined as 3.2 µM in [12], 14.8 µM in [13], 26.4 µM in experiment [14] and 3.22 µM in experiment [15].
Take `Cc1cccc2c(N)c3cccc(C(=O)NCC[N+](C)(C)Cc4ccccc4[N+](=O)[O-])c3nc12`: the TGI is above 54.5 µM in experiment [16]; above 32.5 µM in experiment [1]; above 39.9 µM in [2]; 8.82 µM in [3]; above 39 µM in experiment [4]; above 54.6 µM in [5]. Besides, the TGI is 2.09 µM in [6]; above 30.7 µM in experiment [7]; above 20 µM in experiment [8]; above 53 µM in experiment [9]; above 31.2 µM in experiment [10]; above 100 µM in [11]. Further, the TGI was above 25.9 µM in experiment [12], above 27.6 µM in [13], above 50.1 µM in [14] and above 39.7 µM in experiment [15].
For `C/C(=C/CC[C@](C)(OC1OC(CO)C(O)C(O)C1O)[C@H]1CC[C@]2(C)[C@@H]1CC[C@@H]1[C@@]3(C)CC[C@H](O)C(C)(C)[C@@H]3C[C@H](O)[C@]12CO)CO` (some centres undefined), the TGI in experiment [16], in experiment [1], in experiment [2], in [3], in [4] and in experiment [6] was above 100 µM each time. Besides, the TGI in [7], in [8], in experiment [9], in [10], in experiment [17] and in experiment [11] was above 100 µM in each case. For the same compound, the TGI in experiment [13], in experiment [14] and in [15] was above 100 µM each time.
For `O=C(NCCCCCCCCNC(=O)Nc1cccc2ccccc12)Nc1cccc2ccccc12`, the TGI is above 100 µM in experiment [16]; 24.6 µM in experiment [1]; 59.3 µM in experiment [2]; above 100 µM in [3]; above 100 µM in experiment [4]; above 100 µM in experiment [5]. Further, the TGI in [7] was above 100 µM; in [8], above 100 µM; in [9] it was 47.3 µM; in [10], above 100 µM; in experiment [17] it was 48.7 µM; in [11], 59.1 µM. The TGI in experiment [12] was above 100 µM; in experiment [13] it was 8.49 µM; in experiment [14] it was above 100 µM; in experiment [15] it was above 100 µM.
On to `O=C(C[C@@H]1CCCN2CCCC[C@H]12)N1c2ccccc2Sc2ccc(Cl)cc21`, for which the TGI in experiment [16] was 30.9 µM; in experiment [1], 32.1 µM; in [2], 32.1 µM; in [3], 33.4 µM; in [4], 28 µM; in [6], 53 µM. In addition, the TGI in experiment [7] worked out at 37.2 µM; in experiment [8] it was 35.5 µM; in [9], 26.8 µM; in [10], 38.5 µM; in experiment [17] it was 35.1 µM; in experiment [11], 27.3 µM. Further, the TGI in experiment [13] is 24.4 µM; in experiment [14], 36.7 µM; in [15] it was 26.1 µM.
With `Cc1[nH]c2ncn3[nH]c(=S)nc3c2c1Cc1ccccc1`, the TGI in [16], in experiment [1], in experiment [2], in experiment [3], in [4] and in experiment [5] was above 100 µM each time. Also, the TGI in experiment [7], in [8], in [9], in experiment [10], in experiment [17] and in experiment [12] was above 100 µM each time. In addition, the TGI in experiment [13], in [14] and in [15] was above 100 µM in each case.
With `Brc1ccc(-c2[nH]c3ccccc3c2/C=N\Nc2ccc(-c3nc4ccccc4[nH]3)cc2)cc1`, the TGI in experiment [16] was above 100 µM; in experiment [2] it was above 100 µM; in experiment [4] it was above 100 µM; in experiment [5], above 35.4 µM; in experiment [7], above 58.5 µM; in experiment [8] it was above 100 µM. The TGI in experiment [9] was above 49.5 µM; in experiment [10] it was below 0.01 µM; in experiment [17], above 68.6 µM; in [11], above 100 µM; in experiment [12], below 0.01 µM; in experiment [13] it was above 42.1 µM. The TGI in experiment [14] is above 100 µM; in experiment [15] it was 0.0834 µM.
As for `NCCCN(CCCCN(CCCN)Cc1ccccc1)Cc1ccccc1`, the TGI in [16] is above 100 µM; in experiment [1], above 100 µM; in [2], 42.5 µM; in [3], 37.6 µM; in [4], above 100 µM; in [7] it was above 100 µM. Further, the TGI in experiment [8] is above 100 µM; in experiment [9], above 100 µM; in experiment [10], 35.7 µM; in experiment [17], above 100 µM; in experiment [11], 40.5 µM; in experiment [12], 22.7 µM. Also, the TGI in [13], in [14] and in experiment [15] was above 100 µM throughout.
Turning to `CCOC(=O)C1CCCc2sc(N)c(C#N)c21` (centres undefined), the TGI in [16], in [2], in experiment [3], in [4], in experiment [5] and in experiment [6] was above 100 µM throughout. Further, the TGI in [7], in experiment [8], in [9], in experiment [10], in [12] and in [13] was above 100 µM each time. Besides, in experiment [15], the TGI is above 100 µM.
Take `Fc1cc2nc3n(c2cc1F)C(c1c(F)cccc1F)SC3` (centres undefined): the TGI in experiment [16], in experiment [1], in experiment [2], in experiment [3], in experiment [4] and in experiment [5] was above 100 µM throughout. In addition, the TGI in [6], in experiment [7], in experiment [8], in [9], in experiment [10] and in experiment [11] was above 100 µM each time. In addition, the TGI in experiment [12], in [13], in [14] and in [15] was above 100 µM each time.
In the case of `CSc1nc(-c2ccccc2)[nH]c(=O)n1`, the TGI in [16], in experiment [1], in [2], in [4], in [5] and in [7] was above 100 µM in each case. For the same compound, the TGI in experiment [8], in [9], in [10], in experiment [17], in [12] and in [13] was above 100 µM throughout. Besides, the TGI in experiment [14] and in experiment [15] was above 100 µM each time.
Take `COc1cc(C2c3cc4c(cc3OC(NNC(N)=S)C2C)OCO4)cc(OC)c1OC` (centres undefined): the TGI was above 100 µM in experiment [16]; 0.523 µM in experiment [1]; above 100 µM in [2]; above 100 µM in experiment [3]; 62.3 µM in experiment [4]; above 100 µM in experiment [5]. Besides, the TGI is 1.42 µM in [6]; above 55.1 µM in experiment [7]; above 100 µM in experiment [8]; above 100 µM in experiment [9]; above 100 µM in experiment [10]; above 100 µM in experiment [11]. Moreover, the TGI in [12] is 18.7 µM; in experiment [13] it was above 42.9 µM; in [14], 0.884 µM; in experiment [15], 1.37 µM.
Regarding `Nc1nc(Cl)c(N)c(NCC2(CO)CCC(OCc3ccccc3)C2)n1` (centres undefined), the TGI in [16], in experiment [1], in experiment [2], in experiment [3], in [4] and in [5] was above 100 µM throughout. Besides, the TGI in experiment [7], in [8], in experiment [9], in experiment [10], in experiment [17] and in experiment [11] was above 100 µM in each case. In addition, the TGI in experiment [12], in [13], in experiment [14] and in experiment [15] was above 100 µM in each case.
As for `CC(=O)NC1=NC(=O)/C(=C/c2ccccc2Cl)N1C`, the TGI in experiment [16], in experiment [1], in experiment [2], in experiment [3], in experiment [4] and in [5] was above 100 µM in each case. Further, the TGI in experiment [7], in experiment [8], in experiment [9], in [10], in [17] and in experiment [11] was above 100 µM in each case. Also, the TGI in experiment [12], in experiment [13], in experiment [14] and in [15] was above 100 µM each time.
